Assay results reported in patent publication US6372774B1, “Derivatives of N-phenylpyrazoles” (Rhone-Poulenc Agriculture Ltd., priority 1985, dated 2002).
Where two headings read alike, the source gives them in different places.

Tests used:
[1] = system: Plutella xylostella (Diamond-back Moth); assay: whole plant or invertebrate; assay type: in vivo; conditions: foliar; for mortality at 500 ppm: read-out: mortality of larvae of Plutella xylostella; for pest or weed control at 500 ppm: read-out: Plutella % m 500 ppm
Excerpt: (§1) One or more dilutions of the compounds to be tested were made in 50% aqueous acetone.
(§2) a) Test species: Plutella xylostella (Diamond-back Moth) and Phaedon cochleariae (Mustard Beetle)
(§3) Turnip leaf discs were set in agar in petri-dishes and infected with 10 larvae (2nd instar Plutella or 3rd instar Phaedon). Four replicate dishes were assigned to each treatment and were sprayed under a Potter Tower with the appropriate test dilution. Four or five days after treatment the dishes were removed from the constant temperature (25° C.) room in which they had been held and the mean percentage mortalities of larvae were determined.

[2] = system: Phaedon cochleariae (Mustard Beetle); assay: Test 3 a): leaf disc spray test, Phaedon cochleariae larvae; assay type: in vivo; conditions: for pest or weed control at 10 ppm / mortality at 5 ppm: Phaedon cochleariae, foliar; for pest or weed control at 10 ppm: read-out: Phaedon % m 10 ppm; for mortality at 5 ppm: read-out: mortality of larvae of Phaedon cochleariae
Excerpt: as §1, §2, §3

[3] = Test 3 method (a), application of 500 ppm

For `N#Cc1c(I)nn(-c2c(Cl)cc(C(F)(F)F)cc2Cl)c1N` [Compound 116, 5-Amino-3-iodo-4-cyano-1-(2,6-dichloro-4-trifluoromethylphenyl)pyrazole], the mortality at 500 ppm [1] was 100% and the pest or weed control at 10 ppm [2] was 93%.

In the case of `CS(=O)(=O)c1c(C(F)(F)F)nn(-c2c(Cl)cc(C(F)(F)F)cc2Cl)c1N` [Compound 130, 5-Amino-1-(2,6-dichloro-4-trifluoromethylphenyl)-4-methanesulphonyl-3-trifluoromethylpyrazole], the mortality at 500 ppm [1] is reported as 100% and the pest or weed control at 10 ppm [2] is reported as 100%.

`NC(=O)c1c(C(F)(F)F)nn(-c2c(Cl)cc(C(F)(F)F)cc2Cl)c1N` [Compound 131, 5-Amino-4-carbamoyl-1-(2,6-dichloro-4-trifluoromethylphenyl)-3-trifluoromethylpyrazole] showed a pest or weed control at 500 ppm [1] of 58% and a pest or weed control at 10 ppm [2] of 100%.

With `COC(=O)c1c(C(F)(F)F)nn(-c2c(Cl)cc(C(F)(F)F)cc2Cl)c1N` [Compound 132, 5-Amino-1-(2,6-dichloro-4-trifluoromethylphenyl)-4-methoxycarbonyl-3-trifluoromethylpyrazole] the pest or weed control at 500 ppm [1] was 10% and the pest or weed control at 10 ppm [2] was 100%.

For `CN(C)c1c(C#N)c(C(F)(F)F)nn1-c1c(Cl)cc(C(F)(F)F)cc1Cl` [Compound 136, 4-Cyano-1-(2,6-dichloro-4-trifluoromethylphenyl)-5-dimethylamino-3-trifluoromethylpyrazole], the mortality at 500 ppm [1] was 100% and the pest or weed control at 10 ppm [2] was 56%.

`CCOC(=O)CNc1c(C#N)c(C(F)(F)F)nn1-c1c(Cl)cc(C(F)(F)F)cc1Cl` [Compound 137, 4-Cyano-1-(2,6-dichloro-4-trifluoromethylphenyl)-5-ethoxycarbonylmethylamino-3-trifluoromethylpyrazole] gave a pest or weed control at 500 ppm [1] of 48% and a pest or weed control at 10 ppm [2] of 100%.

`CNc1c(C#N)c(C(F)(F)F)nn1-c1c(Cl)cc(C(F)(F)F)cc1Cl` [Compound 138, 4-Cyano-5-methylamino-1-(2,6-dichloro-4-trifluoromethylphenyl)-3-trifluoromethylpyrazole] was tested, and the mortality at 500 ppm [1] was 100% and the pest or weed control at 10 ppm [2] was 100%.

`CC(C)(C)C(=O)Nc1c(C#N)c(C(F)(F)F)nn1-c1c(Cl)cc(C(F)(F)F)cc1Cl` [Compound 139, 4-Cyano-1-(2,6-dichloro-4-trifluoromethylphenyl)-5-(2,2-dimethylpropionamido)-3-trifluoromethylpyrazole] showed a mortality at 500 ppm [1] of 100% and a pest or weed control at 10 ppm [2] of 16%.

Work on `Nc1c(Br)c(C(F)(F)F)nn1-c1c(Cl)cc(C(F)(F)F)cc1Cl` [Compound 140, 5-Amino-4-bromo-1-(2,6-dichloro-4-trifluoromethylphenyl)-3-trifluoromethylpyrazole] yielded a mortality at 500 ppm [1] of 100% and a pest or weed control at 10 ppm [2] of 84%.

For `N#Cc1c(C(F)(F)F)nn(-c2c(Cl)cc(C(F)(F)F)cc2Cl)c1Br` [Compound 141, 5-Bromo-4-cyano-1-(2,6-dichloro-4-trifluoromethylphenyl)-3-trifluoromethylpyrazole], the pest or weed control at 500 ppm [1] was 44% and the pest or weed control at 10 ppm [2] was 100%.

Work on `Nc1c([N+](=O)[O-])c(C(F)(F)F)nn1-c1c(Cl)cc(C(F)(F)F)cc1Cl` [Compound 143, 5-Amino-1-(2,6-dichloro-4-trifluoromethylphenyl)-4-nitro-3-trifluoromethylpyrazole] yielded a mortality at 500 ppm [1] of 100% and a pest or weed control at 10 ppm [2] of 100%.

For `CCOC(=O)N(C(=O)OCC)c1c(C#N)c(C(F)(F)F)nn1-c1c(Cl)cc(C(F)(F)F)cc1Cl` [Compound 145, 4-Cyano-1-(2,6-dichloro-4-trifluoromethylphenyl)-5-bis(ethoxycarbonyl)amino-3-trifluoromethylpyrazole], the mortality at 500 ppm [1, 3] was 100% and the pest or weed control at 10 ppm [2] was 100%.

For `N#Cc1c(C(F)(F)F)nn(-c2c(Cl)cc(C(F)(F)F)cc2Cl)c1N(C(=O)C1CC1)C(=O)C1CC1` [Compound 146, 4-Cyano-1-(2,6-dichloro-4-trifluoromethylphenyl)-5-bis(cyclopropanecarbonyl)amino-3-trifluoromethylpyrazole], the mortality at 500 ppm [1] was 100% and the pest or weed control at 10 ppm [2] was 85%.

With `N#Cc1c(C(F)(F)F)nn(-c2c(Cl)cc(C(F)(F)F)cc2Cl)c1NC(=O)C1CC1` [Compound 147, 4-Cyano-1-(2,6-dichloro-4-trifluoromethylphenyl)-5-cyclopropanecarbonamido-3-trifluoromethylpyrazole] the “Phaedon % m 10 ppm” value ([2]; Tables 1-3, % mortality at 10 ppm) was 100%.

For `Nc1c(Cl)c(C(F)(F)F)nn1-c1c(Cl)cc(C(F)(F)F)cc1Cl` [Compound 148, 5-Amino-4-chloro-1-(2,6-dichloro-4-trifluoromethylphenyl)-3-trifluoromethylpyrazole], the pest or weed control at 500 ppm [1] was 98% and the pest or weed control at 10 ppm [2] was 21%.

For `CCOC(=O)Nc1c(C#N)c(C(F)(F)F)nn1-c1c(Cl)cc(C(F)(F)F)cc1Cl` [Compound 149, 4-Cyano-1-(2,6-dichloro-4-trifluoromethylphenyl)-5-ethoxycarbonylamino-3-trifluoromethylpyrazole], the mortality at 500 ppm [1, 3] was 100% and the pest or weed control at 10 ppm [2] was 100%.

`CC(=O)N(C(=O)C(C)(C)C)c1c(C#N)c(C(F)(F)F)nn1-c1c(Cl)cc(C(F)(F)F)cc1Cl` [Compound 176, 4-Cyano-1-(2,6-dichloro-4-trifluoromethylphenyl)-5-(N-acetyl-N-trimethylacetylamino)-3-trifluoromethylpyrazole] was tested, and the mortality at 500 ppm [1] was 100%.

Molecule `CCC(=O)N(C(=O)C(C)(C)C)c1c(C#N)c(C(F)(F)F)nn1-c1c(Cl)cc(C(F)(F)F)cc1Cl` [Compound 177, 4-Cyano-1-(2,6-dichloro-4-trifluoromethylphenyl)-5-(N-propionyl-N-trimethylacetylamino)-3-trifluoromethylpyrazole] has a mortality at 500 ppm [1] of 100%.

Molecule `CC(C)(C)C(=O)Nc1c(C#N)c(Cl)nn1-c1c(Cl)cc(C(F)(F)F)cc1Cl` [Compound 180, 3-Chloro-1-(2,6-dichloro-4-trifluoromethylphenyl)-4-cyano-5-trimethylacetylaminopyrazole] has a mortality at 500 ppm [1] of 100%.

`CCOC(=O)N(C(=O)OCC)c1c(C#N)c(Cl)nn1-c1c(Cl)cc(C(F)(F)F)cc1Cl` [Compound 181, 3-Chloro-1-(2,6-dichloro-4-trifluoromethylphenyl)-4-cyano-5-bis(ethoxycarbonyl)aminopyrazole] was tested, and the mortality at 500 ppm [1] was 100%.

`CCOC(=O)Nc1c(C#N)c(Cl)nn1-c1c(Cl)cc(C(F)(F)F)cc1Cl` [Compound 182, 3-Chloro-1-(2,6-dichloro-4-trifluoromethylphenyl)-4-cyano-5-ethoxycarbonylaminopyrazole] gave a mortality at 5 ppm [2] of 100%.

`CCOC(=O)N(C(C)=O)c1c(C#N)c(C(F)(F)F)nn1-c1c(Cl)cc(C(F)(F)F)cc1Cl` [Compound 184, 5-(N-Acetyl-N-ethoxycarbonylamino)-4-cyano-1-(2,6-dichloro-4-trifluoromethylphenyl)-3-trifluoromethylpyrazole] was tested, and the mortality at 500 ppm [1] was 100%.

For `Nc1c(I)c(C(F)(F)F)nn1-c1c(Cl)cc(C(F)(F)F)cc1Cl` [Compound 189, 5-Amino-1-(2,6-dichloro-4-trifluoromethylphenyl)-4-iodo-3-trifluoromethylpyrazole], the mortality at 500 ppm [1] was 100%.

With `N#Cc1cn(-c2c(Cl)cc(C(F)(F)F)cc2Cl)nc1F` [Compound 195, 4-Cyano-1-(2,6-dichloro-4-trifluoromethylphenyl)-3-fluoropyrazole] the mortality at 500 ppm [1] was 100%.

`CCNS(=O)(=O)c1c(C(F)(F)F)nn(-c2c(Cl)cc(C(F)(F)F)cc2Cl)c1N` [Compound 198, 5-Amino-1-(2,6-dichloro-4-trifluoromethylphenyl)-4-(N-ethylsulphamoyl)-3-trifluoromethylpyrazole] was tested, and the mortality at 5 ppm [2] was 100%.

`CNS(=O)(=O)c1c(C(F)(F)F)nn(-c2c(Cl)cc(C(F)(F)F)cc2Cl)c1N` [Compound 199, 5-Amino-1-(2,6-dichloro-4-trifluoromethylphenyl)-4-(N-methylsulphamoyl)-3-trifluoromethylpyrazole] showed a mortality at 5 ppm [2] of 100%.

With `N#Cc1c(F)nn(-c2c(Cl)cc(C(F)(F)F)cc2Cl)c1N` [Compound 202, 5-Amino-1-(2,6-dichloro-4-trifluoromethylphenyl)-4-cyano-3-fluoropyrazole] the mortality at 500 ppm [1] was 100%.

`C[Si](C)(C)c1c(C#N)c(C(F)(F)F)nn1-c1c(Cl)cc(C(F)(F)F)cc1Cl` [Compound 205, 4-Cyano-1-(2,6-dichloro-4-trifluoromethylphenyl)-3-trifluoromethyl-5-trimethylsilylpyrazole] showed a mortality at 5 ppm [2] of 100%.

`C[Si](C)(C)Cc1c(C#N)c(C(F)(F)F)nn1-c1c(Cl)cc(C(F)(F)F)cc1Cl` [Compound 211, 4-Cyano-1-(2,6-dichloro-4-trifluoromethylphenyl)-3-trifluoromethyl-5-trimethylsilylmethylpyrazole] gave a mortality at 500 ppm [1] of 100%.

With `N#Cc1c(C(F)(F)F)nn(-c2c(Cl)cc(C(F)(F)F)cc2Cl)c1C#N` [Compound 213, 1-(2,6-Dichloro-4-trifluoromethylphenyl)-4,5-dicyano-3-trifluoromethylpyrazole] the mortality at 500 ppm [1] was 100%.

In the case of `C[S+]([O-])c1c(C#N)c(C(F)(F)F)nn1-c1c(Cl)cc(C(F)(F)F)cc1Cl` (centres unmarked) [Compound 220, 4-Cyano-1-(2,6-dichloro-4-trifluoromethylphenyl)-5-methylsulphinyl-3-trifluoromethylpyrazole], the mortality at 5 ppm [2] is reported as 100%.

`CCS(=O)(=O)c1c(C(F)(F)F)nn(-c2c(Cl)cc(C(F)(F)F)cc2Cl)c1N` [Compound 221, 5-Amino-1-(2,6-dichloro-4-trifluoromethylphenyl)-4-ethylsulphonyl-3-trifluoromethylpyrazole] showed a mortality at 5 ppm [2] of 100%.
